Measured values published in US20110189709A1, “METHOD FOR DETECTING HEPATIC INJURY DUE TO ANTITHYROID DRUG” (YAMASA CORPORATION, priority 2010, published 2011).

Columns and labels:
[1] = Rat thyrotoxicosis model (T3 administration); type: in vivo
Protocol: Each of blood OCT, AST and ALT levels was measured before and after the administration.

[2] = system: primary cultured hepatocytes; details: 10 mM PTU, 1 hour and 3 hours after adding
Protocol: Rat hepatocytes, which were isolated by collagenase prefusion, are placed into a 24-well plate coated with collagen to have 10^5 cells/well and cultured for 4 hours. After removing the cells not fixed to the well, 10 mM of PTU was added to the cells and each of the 3 cultured media prior to adding the PTU, of 1 hour after adding the PTU, and of 3 hours after adding PTU, was sampled. After 3 hours of culturing, 0.5% of Triton-X100 was added to destroy the cells and a suspended solution was obtained. OCT, ALT and AST levels in each of the sampled cultured medium and the suspended solution after cell destruction were measured. […] Based upon an activity of the suspended solution as 100%, leakage rates of OCT, AST and ALT were calculated in each cultured medium obtained by sampling.

[3] = liver homogenate after 10 days T3, vs control group

Compound | ALT content in the liver [1, 3] | AST content in the liver [1, 3] | blood OCT level ([1]; male Wistar rats, T3 0.1 mg/kg/day s.c. for 10 days, ELISA, control group 14.0±1.6) [ng/mL] | blood ALT level ([1]; male Wistar rats, T3 0.1 mg/kg/day s.c. for 10 days, control group 8.2±0.8) [IU/L] | blood AST level ([1]; male Wistar rats, T3 0.1 mg/kg/day s.c. for 10 days, control group 29.0±5.1) [IU/L] | body weight ([1]; male Wistar rats, T3 0.1 mg/kg/day s.c. for 10 days, control group 303±15.9 g) [g] | levels of AST, ALT and OCT in cultured medium ([2]; FIG. 1) | OCT leakage rates compared to the ALT leakage rates ([2]; suspended solution after cell destruction = 100%)
N[C@@H](Cc1cc(I)c(Oc2ccc(O)c(I)c2)c(I)c1)C(=O)O [T3] | elevated significantly | elevated significantly | 11.9 ± 2.5 | 11.2±0.6 | 40.0±6.51 | 266 ± 5.8 | – | –
CCCc1cc(=O)[nH]c(=S)[nH]1 [PTU, propylthiouracil] | – | – | – | – | – | – | elevated | higher
